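Results reflect a 48-hour exposure of cells in 96-well plates to compound at five concentrations. Abbreviation: GI50, concentration required for 50% inhibition of growth.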 Activity calls are given as the source filed them. No stated cut-off is given here; in the data, active = GI50 up to about 1.1 µM and inactive = higher.
Assays:
Experiment in all cases: growth of human tumour cells (NCI), 48 h
CAKI-1 = system: CAKI-1
NCI-H23 = system: NCI-H23
HCT-15 = system: HCT-15
NCI-H226 = system: NCI-H226
HCC 2998 = system: HCC 2998
MDA-MB-231 = system: MDA-MB-231
K562 = system: K562
PC-3 = system: PC-3
UACC-62 = system: UACC-62
NCI/ADR-RES = system: NCI/ADR-RES
TK-10 = system: TK-10
U-251 = system: U-251
SK-OV-3 = system: SK-OV-3
HOP-92 = system: HOP-92
SN12C = system: SN12C
A549 = system: A549
MOLT-4 = system: MOLT-4
SF-539 = system: SF-539
HOP-62 = system: HOP-62
M14 = system: M14

| SMILES | GI50 (CAKI-1) | GI50 (NCI-H23) | GI50 (HCT-15) | GI50 (NCI-H226) | GI50 (HCC 2998) | GI50 (MDA-MB-231) | GI50 (K562) | GI50 (PC-3) | GI50 (UACC-62) | GI50 (NCI/ADR-RES) | GI50 (TK-10) | GI50 (U-251) | GI50 (SK-OV-3) | GI50 (HOP-92) | GI50 (SN12C) | GI50 (A549) | GI50 (MOLT-4) | GI50 (SF-539) | GI50 (HOP-62) | GI50 (M14) |
| --- | --- | --- | --- | --- | --- | --- | --- | --- | --- | --- | --- | --- | --- | --- | --- | --- | --- | --- | --- | --- |
| O=C1C(Cl)=C(Nc2ccc(S(=O)(=O)Nc3ccccn3)cc2)C(=O)c2ccccc21 | 16.8 µM (inactive) | 10.8 µM (inactive) | 4.36 µM | 20.7 µM (inactive) | 12.2 µM (inactive) | 6.89 µM (inactive) | 2.23 µM (inactive) | 12.8 µM (inactive) | 5.6 µM (inactive) | 9.93 µM (inactive) | 7.98 µM (inactive) | 5.6 µM (inactive) | 17 µM (inactive) | 5.7 µM (inactive) | 11.3 µM (inactive) | 18.7 µM (inactive) | 3.61 µM (inactive) | 4.54 µM (inactive) | 13 µM (inactive) | 5.93 µM (inactive) |
| O=C(O)/C=N/NC(=S)NC1CCCCC1 | > 100 µM (inactive) | > 100 µM (inactive) | > 100 µM | > 100 µM (inactive) | > 100 µM (inactive) | > 100 µM (inactive) | > 100 µM (inactive) | > 100 µM (inactive) | > 100 µM (inactive) | > 100 µM (inactive) | > 100 µM (inactive) | > 100 µM (inactive) | > 100 µM (inactive) | > 100 µM (inactive) | > 100 µM (inactive) | > 100 µM (inactive) | > 100 µM (inactive) | > 100 µM (inactive) | > 100 µM (inactive) | > 100 µM (inactive) |
| Cc1cnc2c(c1)C(=O)N(c1ccc(Oc3ccccc3)cc1)S2(=O)=O | > 100 µM (inactive) | > 100 µM (inactive) | > 100 µM | 59.6 µM (inactive) | > 100 µM (inactive) | > 100 µM (inactive) | > 100 µM (inactive) | > 100 µM (inactive) | > 100 µM (inactive) | > 100 µM (inactive) | > 100 µM (inactive) | > 100 µM (inactive) | > 100 µM (inactive) | > 100 µM (inactive) | > 100 µM (inactive) | > 100 µM (inactive) | > 100 µM (inactive) | > 100 µM (inactive) | > 100 µM (inactive) | > 100 µM (inactive) |
| COC1CC(OC2C(C)OC(OC3C(C)OC(OC4C(C)OC(O[C@H]5CC[C@@]6(C)C(=CC[C@]7(O)[C@@H]6C[C@@H](OC(=O)/C=C/c6ccccc6)[C@@]6(C)[C@]7(O)CC[C@@]6(O)C(C)=O)C5)CC4OC)CC3OC)CC2OC)OC(C)C1O (stereo not given in full) | > 12.5 µM (inactive) | > 12.5 µM (inactive) | > 12.5 µM | > 12.5 µM (inactive) | > 12.5 µM (inactive) | > 12.5 µM (inactive) | > 12.5 µM (inactive) | > 12.5 µM (inactive) | > 12.5 µM (inactive) | > 12.5 µM (inactive) | > 12.5 µM (inactive) | > 12.5 µM (inactive) | > 12.5 µM (inactive) | > 12.5 µM (inactive) | > 12.5 µM (inactive) | > 12.5 µM (inactive) | > 12.5 µM (inactive) | > 12.5 µM (inactive) | > 12.5 µM (inactive) | > 12.5 µM (inactive) |
| NC(=O)[N+](=CC(=S)Nc1ccccc1Cl)C(N)=O | > 100 µM (inactive) | > 100 µM (inactive) | > 100 µM | > 100 µM (inactive) | > 100 µM (inactive) | > 100 µM (inactive) | > 100 µM (inactive) | > 100 µM (inactive) | > 100 µM (inactive) | > 100 µM (inactive) | > 100 µM (inactive) | > 100 µM (inactive) | > 100 µM (inactive) | > 100 µM (inactive) | > 100 µM (inactive) | > 100 µM (inactive) | > 100 µM (inactive) | > 100 µM (inactive) | > 100 µM (inactive) | > 100 µM (inactive) |
| Cn1c(=S)[nH]c2sc3c(c2c1=O)CCSC3 | 44.8 µM (inactive) | 36.9 µM (inactive) | 31 µM | 22 µM (inactive) | 21.8 µM (inactive) | > 100 µM (inactive) | 42.9 µM (inactive) | 44.2 µM (inactive) | 24.8 µM (inactive) | 31.3 µM (inactive) | 80.5 µM (inactive) | 40.5 µM (inactive) | 90.8 µM (inactive) | 23.9 µM (inactive) | 40 µM (inactive) | 43.1 µM (inactive) | 33.8 µM (inactive) | 54.1 µM (inactive) | 25.9 µM (inactive) | 35.2 µM (inactive) |
| C=C(C(=O)OC)N1C(=O)CC(C)C1=O (stereo not given) | 1.13 µM (inactive) | 17.9 µM (inactive) | 7.45 µM | 27 µM (inactive) | 16.1 µM (inactive) | 17.6 µM (inactive) | 2.87 µM (inactive) | 16.1 µM (inactive) | 15.2 µM (inactive) | 15.6 µM (inactive) | 6.79 µM (inactive) | 17.4 µM (inactive) | 35.7 µM (inactive) | 1.95 µM (inactive) | 16.1 µM (inactive) | 20.9 µM (inactive) | 3.33 µM (inactive) | 19 µM (inactive) | 17.5 µM (inactive) | 13.7 µM (inactive) |
| O=S(=O)(CC#CCS(=O)(=O)c1ccccc1)c1ccccc1 | 1.77 µM (inactive) | 2.98 µM (inactive) | 1.35 µM | 14.6 µM (inactive) | 18.7 µM (inactive) | 11.6 µM (inactive) | 1.58 µM (inactive) | 7.45 µM (inactive) | 3.55 µM (inactive) | 3.72 µM (inactive) | 2.72 µM (inactive) | 8.55 µM (inactive) | 13.4 µM (inactive) | 1.61 µM (inactive) | 4.28 µM (inactive) | 19.1 µM (inactive) | 0.959 µM (active) | 2.48 µM (inactive) | 5.71 µM (inactive) | 1.86 µM (inactive) |
| CC1=C(C(=O)Nc2ccccc2)C(c2ccc(C)o2)C(C#N)=C(SCc2ccccc2)N1 (stereo not given) | > 100 µM (inactive) | > 100 µM (inactive) | 12.7 µM | > 100 µM (inactive) | > 100 µM (inactive) | > 100 µM (inactive) | 14.4 µM (inactive) | > 55.8 µM (inactive) | 18.9 µM (inactive) | 18.7 µM (inactive) | > 65.3 µM (inactive) | > 100 µM (inactive) | > 100 µM (inactive) | 5.25 µM (inactive) | > 100 µM (inactive) | > 90.4 µM (inactive) | 7.55 µM (inactive) | > 100 µM (inactive) | > 100 µM (inactive) | > 100 µM (inactive) |
| N#Cc1cc2cc3c4c(c2oc1=O)CCCN4CCC3 | > 100 µM (inactive) | > 100 µM (inactive) | > 100 µM | > 100 µM (inactive) | > 100 µM (inactive) | > 100 µM (inactive) | > 100 µM (inactive) | > 100 µM (inactive) | > 100 µM (inactive) | > 100 µM (inactive) | > 100 µM (inactive) | > 100 µM (inactive) | > 100 µM (inactive) | > 100 µM (inactive) | > 100 µM (inactive) | > 100 µM (inactive) | > 100 µM (inactive) | > 100 µM (inactive) | > 100 µM (inactive) | > 100 µM (inactive) |
| OCCNc1nc2c(N3CCCC3)nc(N3CCNCC3)nc2nc1NCc1ccccc1 | 16.2 µM (inactive) | 18.2 µM (inactive) | 16.4 µM | 16.3 µM (inactive) | 15.2 µM (inactive) | 15.7 µM (inactive) | 14 µM (inactive) | 16.9 µM (inactive) | 17.3 µM (inactive) | 38.5 µM (inactive) | 15 µM (inactive) | 11.1 µM (inactive) | 16.8 µM (inactive) | 7.8 µM (inactive) | 16.7 µM (inactive) | 17 µM (inactive) | 16 µM (inactive) | 16.3 µM (inactive) | 2.63 µM (inactive) | 15.7 µM (inactive) |
| CCOC(=O)c1ccc(Nc2cnc3ccc(C(F)(F)F)cc3n2)cc1 | 16.9 µM (inactive) | 15 µM (inactive) | 14.8 µM | 16.4 µM (inactive) | 12.9 µM (inactive) | 23.4 µM (inactive) | 19 µM (inactive) | 19.2 µM (inactive) | 13.6 µM (inactive) | 12.8 µM (inactive) | 12.3 µM (inactive) | 16.8 µM (inactive) | 35.9 µM (inactive) | 6.18 µM (inactive) | 13.9 µM (inactive) | 14.5 µM (inactive) | 3.63 µM (inactive) | 28.1 µM (inactive) | 20.6 µM (inactive) | 22.7 µM (inactive) |
| C/C(=N\NC(=S)NC(C)(C)C)c1ccccn1 | < 0.0333 µM (active) | < 0.0172 µM (active) | < 0.01 µM | 0.0675 µM (active) | 0.235 µM (active) | < 0.0378 µM (active) | < 0.01 µM (active) | < 0.01 µM (active) | 0.332 µM (active) | < 0.01 µM (active) | 0.358 µM (active) | 0.0252 µM (active) | 0.305 µM (active) | 0.342 µM (active) | 0.295 µM (active) | 0.248 µM (active) | < 0.01 µM (active) | 1.88 µM (inactive) | < 0.0222 µM (active) | < 0.0314 µM (active) |
| C(=C\c1ccccc1)/COc1ccccc1C(N1CCOCC1)n1nc2ccccc2n1 (stereo not given) | 15.2 µM (inactive) | 5.35 µM (inactive) | 1.82 µM | 7.28 µM (inactive) | 17.5 µM (inactive) | 4.73 µM (inactive) | 1.19 µM (inactive) | 2.59 µM (inactive) | 3 µM (inactive) | 3.69 µM (inactive) | 6.98 µM (inactive) | 3.08 µM (inactive) | 32.4 µM (inactive) | 5.15 µM (inactive) | 5.6 µM (inactive) | 41 µM (inactive) | 2.3 µM (inactive) | 2.59 µM (inactive) | 4.71 µM (inactive) | 2.58 µM (inactive) |

— ChEMBL document CHEMBL1201862, “PubChem BioAssay data set” (2004)
